Patent US9376442B2, “Methylpyrrolopyrimidinecarboxamides” (Takeda GmbH, priority 2009, dated 2016)

What follows are molecules tested against T1, PDE5A1 (Homo sapiens, UniProt O76074) (assay: Inhibition of type 5 phosphodiesterase (PDE5) activity, modified SPA test with human platelet lysate). Conditions: 0.5 μM cGMP, read-out: PDE5A1 inhibitory values [measured as −log IC50 (mol/l)] (converted).
T1 construct: from tissue; host or cells: human platelets from fresh donor blood (10,000 x g supernatant of sonicated lysate)
Format: biochemical
Summary of the method: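 Scintillation proximity assay with [3H]cGMP tracer at 0.5 μM total cGMP, stopped after 15 min with beads containing IBMX. PDE3 and PDE2 activities suppressed with motapizone (1 μM) and a PDE2 inhibitor (10 nM). Human platelet supernatant served as the enzyme, with compound preincubated 5 min at 37° C; IC50 values from concentration-effect curves.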
For CCC(=O)N1CCC(NC(=O)c2c(C)[nH]c3c(-c4ccc(OC)cc4OCC4CC4)ncnc23)CC1 [Example E56, 4-[2-(Cyclopropylmethoxy)-4-methoxyphenyl]-6-methyl-N-(1-propionylpiperidin-4-yl)-5H-pyrrolo[3,2-d]pyrimidine-7-carboxamide], the IC50 was under 1 nM. Work on COCC(=O)N1CCC(NC(=O)c2c(C)[nH]c3c(-c4cc(OC)c(F)cc4OCC4CC4)ncnc23)CC1 [Example E104, 4-[2-(Cyclopropylmethoxy)-4-fluoro-5-methoxyphenyl]-N-[1-(methoxyacetyl)piperidin-4-yl]-6-methyl-5H-pyrrolo[3,2-d]pyrimidine-7-carboxamide] yielded an IC50 of under 1 nM. Molecule COCC(=O)N1CC[C@@H](NC(=O)c2c(C)[nH]c3c(-c4cc(F)ccc4OCC4CC4)ncnc23)C1 [Example E48, 4-[2-(Cyclopropylmethoxy)-5-fluorophenyl]-N-[(3R)-1-(methoxyacetyl)pyrrolidin-3-yl]-6-methyl-5H-pyrrolo[3,2-d]pyrimidine-7-carboxamide] has an IC50 of 1 to 10 nM. Cc1[nH]c2c(-c3c(OCC4CC4)ccc4c3OCO4)ncnc2c1C(=O)NC1CN(C(=O)C(C)O)CC1O (mixture of isomers) [Example F10, Diastereomeric mixture of 4-[5-(Cyclopropylmethoxy)-1,3-benzodioxol-4-yl]-N-{(3R,4R)-4-hydroxy-1-[(2S)-2-hydroxypropanoyl]pyrrolidin-3-yl}-6-methyl-5H-pyrrolo[3,2-d]pyrimidine-7-carboxamide and 4-[5-(cyclopropylmethoxy)-1,3-benzodioxol-4-yl]N-{(3S,4S)-4-hydroxy-1-[(2S)-2-hydroxypropanoyl]pyrrolidin-3-yl}-6-methyl-5H-pyrrolo[3,2-d]pyrimidine-7-carboxamide] was tested, and the IC50 was under 1 nM. COc1cc(-c2ncnc3c(C(=O)N[C@H]4CN(C(C)=O)CC[C@@H]4O)c(C)[nH]c23)c(OCC2CC2)cc1F (relative stereo) [Example E116, N-[(3S*,4S*)-1-Acetyl-4-hydroxypiperidin-3-yl]-4-[2-(cyclopropylmethoxy)-4-fluoro-5-methoxyphenyl]-6-methyl-5H-pyrrolo[3,2-d]pyrimidine-7-carboxamide] gave an IC50 of under 1 nM. Work on COc1cc(-c2ncnc3c(C(=O)NC4CCN(C(=O)[C@H](C)O)CC4)c(C)[nH]c23)c(OCC2CC2)cc1F [Example F66, 4-[2-(Cyclopropylmethoxy)-4-fluoro-5-methoxyphenyl]-N-{1-[(2S)-2-hydroxypropanoyl]piperidin-4-yl}-6-methyl-5H-pyrrolo[3,2-d]pyrimidine-7-carboxamide] yielded an IC50 of under 1 nM. With Cc1[nH]c2c(-c3ccc(F)cc3OCC3CC3)ncnc2c1C(=O)N[C@H]1CCN(C(=O)CO)C[C@@H]1O (relative stereo) [Example F21, 4-[2-(Cyclopropylmethoxy)-4-fluorophenyl]-N-[(3S*,4S*)-3-hydroxy-1-(hydroxyacetyl)piperidin-4-yl]-6-methyl-5H-pyrrolo[3,2-d]pyrimidine-7-carboxamide] the IC50 was 1 to 10 nM. With Cc1[nH]c2c(-c3c(OCC4CC4)ccc4c3OCO4)ncnc2c1C(=O)N[C@H]1CC[C@H](NC(=O)CO)CC1 [Example F3, 4-[5-(Cyclopropylmethoxy)-1,3-benzodioxol-4-yl]-N-[trans-4-(glycoloylamino)cyclohexyl]-6-methyl-5H-pyrrolo[3,2-d]pyrimidine-7-carboxamide] the IC50 was under 1 nM. Work on CCC(=O)N1CC[C@@H](NC(=O)c2c(C)[nH]c3c(-c4cc(OC)ccc4OCC4CC4)ncnc23)C1 [Example E76, 4-[2-(Cyclopropylmethoxy)-5-methoxyphenyl]-6-methyl-N-[(3R)-1-propionylpyrrolidin-3-yl]-5H-pyrrolo[3,2-d]pyrimidine-7-carboxamide] yielded an IC50 of under 1 nM. With Cc1[nH]c2c(-c3c(OCC4CC4)ccc4c3OCO4)ncnc2c1C(=O)N[C@@H]1CN(C(=O)CO)C[C@H]1O (relative stereo) [Example F9, 4-[5-(Cyclopropylmethoxy)-1,3-benzodioxol-4-yl]-N-[(3R*,4R*)-1-glycoloyl-4-hydroxypyrrolidin-3-yl]-6-methyl-5H-pyrrolo[3,2-d]pyrimidine-7-carboxamide] the IC50 was under 1 nM. In the case of Cc1[nH]c2c(-c3ccc(F)cc3OCC3CC3)ncnc2c1C(=O)N[C@@H]1CCN(C(=O)CO)C1 [Example F17, 4-[2-(Cyclopropylmethoxy)-4-fluorophenyl]-N-[(3R)-1-(hydroxyacetyl)pyrrolidin-3-yl]-6-methyl-5H-pyrrolo[3,2-d]pyrimidine-7-carboxamide], the IC50 was 1 to 10 nM. CCC(=O)N1C[C@@H](O)[C@H](NC(=O)c2c(C)[nH]c3c(-c4cc(OC)c(F)cc4OCC4CC4)ncnc23)C1 (relative stereo) [Example E184, 4-[2-(Cyclopropylmethoxy)-4-fluoro-5-methoxyphenyl]-N-[(3R*,4R*)-4-hydroxy-1-propionylpyrrolidin-3-yl]-6-methyl-5H-pyrrolo[3,2-d]pyrimidine-7-carboxamide] was tested, and the IC50 was under 1 nM. Work on Cc1[nH]c2c(-c3c(OCC4CC4)ccc4c3OCO4)ncnc2c1C(=O)NC1CCN(C(=O)CO)CC1 [Example F1, 4-[5-(Cyclopropylmethoxy)-1,3-benzodioxol-4-yl]-N-(1-glycoloylpiperidin-4-yl)-6-methyl-5H-pyrrolo[3,2-d]pyrimidine-7-carboxamide] yielded an IC50 of under 1 nM. CC(=O)N1CC[C@@H](NC(=O)c2c(C)[nH]c3c(-c4cc(C)c(F)cc4OCC4CC4)ncnc23)[C@H](O)C1 (relative stereo) [Example E128, N-[(3R*,4R*)-1-Acetyl-3-hydroxypiperidin-4-yl]-4-[2-(cyclopropylmethoxy)-4-fluoro-5-methylphenyl]-6-methyl-5H-pyrrolo[3,2-d]pyrimidine-7-carboxamide] gave an IC50 of under 1 nM. Molecule COc1cc(-c2ncnc3c(C(=O)NC4CCN(C(C)=O)CC4)c(C)[nH]c23)c(OCC2CC2)cc1F [Example E102, N-(1-Acetylpiperidin-4-yl)-4-[2-(cyclopropylmethoxy)-4-fluoro-5-methoxyphenyl]-6-methyl-5H-pyrrolo[3,2-d]pyrimidine-7-carboxamide] has an IC50 of under 1 nM. COc1ccc(OCC2CC2)c(-c2ncnc3c(C(=O)N[C@@H]4CCN(C(=O)CO)C4)c(C)[nH]c23)c1 [Example F47, 4-[2-(cyclopropylmethoxy)-5-methoxyphenyl]-N-[(3R)-1-glycoloylpyrrolidin-3-yl]-6-methyl-5H-pyrrolo[3,2-d]pyrimidine-7-carboxamide] showed an IC50 of under 1 nM. Work on COc1ccc(-c2ncnc3c(C(=O)N[C@H]4CC[C@H](NC(=O)[C@H](C)O)CC4)c(C)[nH]c23)c(OCC2CC2)c1 [Example F36, 4-[2-(Cyclopropylmethoxy)-4-methoxyphenyl]-N-(trans-4-{[(2S)-2-hydroxypropanoyl]amino}cyclohexyl)-6-methyl-5H-pyrrolo[3,2-d]pyrimidine-7-carboxamide] yielded an IC50 of under 1 nM. Cc1[nH]c2c(-c3cc(F)ccc3OCC3CC3)ncnc2c1C(=O)N[C@@H]1CCN(C(=O)CO)C1 [Example F28, 4-[2-(Cyclopropylmethoxy)-5-fluorophenyl]-N-[(3R)-1-(hydroxyacetyl)pyrrolidin-3-yl]-6-methyl-5H-pyrrolo[3,2-d]pyrimidine-7-carboxamide] showed an IC50 of 1 to 10 nM. COc1cc(OCC2CC2)c(-c2ncnc3c(C(=O)N[C@@H]4CCN(C(=O)CO)C4)c(C)[nH]c23)cc1F [Example F115, 4-[2-(Cyclopropylmethoxy)-5-fluoro-4-methoxyphenyl]-N-[(3R)-1-glycoloylpyrrolidin-3-yl]-6-methyl-5H-pyrrolo[3,2-d]pyrimidine-7-carboxamide] was tested, and the IC50 was under 1 nM. Molecule Cc1[nH]c2c(-c3ccc(F)cc3OCC3CC3)ncnc2c1C(=O)NC1CCN(C(=O)[C@H](C)O)CC1 [Example F12, 4-[2-(Cyclopropylmethoxy)-4-fluorophenyl]-N-{1-[(2S)-2-hydroxypropanoyl]piperidin-4-yl}-6-methyl-5H-pyrrolo[3,2-d]pyrimidine-7-carboxamide] has an IC50 of under 1 nM. With CCC(=O)N1CC[C@H](NC(=O)c2c(C)[nH]c3c(-c4ccc(F)cc4OCC4CC4)ncnc23)[C@@H](O)C1 (relative stereo) [Example E35, 4-[2-(Cyclopropylmethoxy)-4-fluorophenyl]-N-[(3S*,4S*)-3-hydroxy-1-propanoylpiperidin-4-yl]-6-methyl-5H-pyrrolo[3,2-d]pyrimidine-7-carboxamide] the IC50 was under 1 nM. Work on COc1ccc(-c2ncnc3c(C(=O)N[C@H]4CC[C@H](NC(C)=O)CC4)c(C)[nH]c23)c(OCC2CC2)c1 [Example E58, N-(trans-4-acetamidocyclohexyl)-4-[2-(cyclopropylmethoxy)-4-methoxyphenyl]-6-methyl-5H-pyrrolo[3,2-d]pyrimidine-7-carboxamide] yielded an IC50 of under 1 nM. CCC(=O)N1C[C@@H](O)[C@H](NC(=O)c2c(C)[nH]c3c(-c4cc(F)c(OC)cc4OCC4CC4)ncnc23)C1 (relative stereo) [Example E190, 4-[2-(Cyclopropylmethoxy)-5-fluoro-4-methoxyphenyl]-N-[(3R*,4R*)-4-hydroxy-1-propionylpyrrolidin-3-yl]-6-methyl-5H-pyrrolo[3,2-d]pyrimidine-7-carboxamide] showed an IC50 of under 1 nM. With CCC(=O)N1C[C@@H](O)[C@H](NC(=O)c2c(C)[nH]c3c(-c4c(OCC5CC5)ccc5c4OCO5)ncnc23)C1 (relative stereo) [Example E17, 4-[5-(Cyclopropylmethoxy)-1,3-benzodioxol-4-yl]-N-[(3R*,4R*)-4-hydroxy-1-propionylpyrrolidin-3-yl]-6-methyl-5H-pyrrolo[3,2-d]pyrimidine-7-carboxamide] the IC50 was under 1 nM. With COCC(=O)N1CC[C@H](NC(=O)c2c(C)[nH]c3c(-c4ccc(F)cc4OCC4CC4)ncnc23)[C@@H](O)C1 (relative stereo) [Example E36, 4-[2-(Cyclopropylmethoxy)-4-fluorophenyl]-N-[(3S*,4S*)-3-hydroxy-1-(methoxyacetyl)piperidin-4-yl]-6-methyl-5H-pyrrolo[3,2-d]pyrimidine-7-carboxamide] the IC50 was 1 to 10 nM.
